Measurements published in patent publication US4960755A, “BU-3608 derivatives” (Bristol-Myers Company, priority 1988, dated 1990).
Converted amounts (≈) assume the structure as drawn. Read-outs that look alike come from different tables or passages of the source.

Experiments:
[1] = Solubility in phosphate-buffered saline solutions, PBS(-) and PBS(+); assay type: physicochemical
Procedure: The solubility of the various antibiotics was determined in phosphate-buffered saline (PBS) solutions and the data obtained are shown below. PBS(-) refers to a solution containing for each liter 0.2 g KCl, 0.2 g KH2 PO4, 8 g NaCl, and 1.15 g Na2 HPO4; PBS(+) contains additionally 100 mg MgCl2.6H2 O and 100 mg CaCl2.

Candida albicans A9540 = assay: In vivo activity against Candida albicans A9540 infection in mice; set-up: species or system male ICR mice; settings: for ED50: Candida albicans, read-out: PD50 (dose that protects 50% of the animals from infection)
Procedure: In vivo activity of compounds of the present invention was tested against Candida albicans A9540 infection in mice. Test organisms were cultured for 18 hours at 28° C. in YGP medium (yeast extract, glucose, peptone, K2 HPO4, MgSO4) and then suspended in saline. Male ICR mice weighing 20 to 24 g were infected intravenously with about 10 times the median lethal dose of the test fungus. The antibiotic at various dose levels was administered to groups of 5 mice each intravenously just after the fungal infection. The dose that protects 50% of the animals from infection (PD50, mg/kg) was calculated from survival rates recorded on the 20th day after the fungal challenge. All control animals died within 7 to 15 days after infection. The PD50 for compounds of Examples 5, 7, and 8 are 14 mg/kg (toxic), 11 mg/kg, and 3.5 mg/kg, respectively.

Solubility in water = assay type: physicochemical; settings: in words
[2] = pbs(+) with mgcl2, PBS(+), containing additionally MgCl2 and CaCl2, read-out: Solubility
[3] = A9540, 480 h, intravenous just after infection, survival on 20th day

Row | solubility ([1]; pbs(-), read-out: Solubility) | SMILES | solubility [1, 2] | other results
1 | 73 µg/mL (≈ 82.7 µM) | CCCN(C)[C@@H]1[C@H](O[C@@H]2OC[C@@H](O)[C@H](O)[C@H]2O)[C@@H](O)[C@H](O[C@H]2c3cc(C)c(C(=O)N[C@H](C)C(=O)O)c(O)c3-c3c(cc4c(c3O)C(=O)c3cc(OC)cc(O)c3C4=O)[C@@H]2O)O[C@@H]1C [Example 9, N-propyl BU-3608] | 32 µg/mL (≈ 36.2 µM) | 
2 | > 2700 µg/mL | COc1cc(O)c2c(c1)C(=O)c1c(cc3c(c1O)-c1c(cc(C)c(C(=O)N[C@H](C)C(=O)O)c1O)[C@H](O[C@@H]1O[C@H](C)[C@H]([N+](C)(C)C)[C@H](O[C@@H]4OC[C@@H](O)[C@H](O)[C@H]4O)[C@H]1O)[C@H]3O)C2=O [Example 10, quaternary ammonium derivative of BU-3608] |  | 
3 | 16 to 18 µg/mL (≈ 19 to 21.4 µM) | CN[C@@H]1[C@H](O[C@@H]2OC[C@@H](O)[C@H](O)[C@H]2O)[C@@H](O)[C@H](O[C@H]2c3cc(C)c(C(=O)N[C@H](C)C(=O)O)c(O)c3-c3c(cc4c(c3O)C(=O)c3cc(OC)cc(O)c3C4=O)[C@@H]2O)O[C@@H]1C [BU-3608] | 9 to 23 µg/mL (≈ 10.7 to 27.4 µM) | solubility in water (Solubility in water): very limited
4 |  | COc1cc(O)c2c(c1)C(=O)c1c(cc3c(c1O)-c1c(cc(C)c(C(=O)NCC(=O)O)c1O)[C@H](O[C@@H]1O[C@H](C)[C@H](N(C)C)[C@H](O)[C@H]1O)[C@H]3O)C2=O [Example 6, N,N-dimethyl desxylosyl BU-3608 E] |  | solubility ([1]; pbs(+) with mgcl2, cacl2): 122 µg/mL (≈ 172 µM); solubility ([1]; pbs(-)): > 2100 µg/mL
5 |  | COc1cc(O)c2c(c1)C(=O)c1c(cc3c(c1O)-c1c(cc(C)c(C(=O)N[C@H](C)C(=O)O)c1O)[C@H](O[C@@H]1O[C@H](C)[C@H](N(C)C)[C@H](O)[C@H]1O)[C@H]3O)C2=O [Example 5, N-methyl BU-3608 B] |  | solubility ([1]; pbs(+) with mgcl2, cacl2): 42 µg/mL (≈ 58.1 µM); solubility ([1]; pbs(-)): 330 µg/mL (≈ 457 µM); ED50 (Candida albicans A9540; A9540, iv, 480 h): 14 mg/kg; toxicity remark at PD50 (Candida albicans A9540; intravenous, at 14 mg/kg, mice): toxic

Row | SMILES | solubility ([1]; pbs(-), read-out: Solubility) | solubility [1, 2] | other results
6 | COc1cc(O)c2c(c1)C(=O)c1c(cc3c(c1O)-c1c(cc(C)c(C(=O)N[C@H](C)C(=O)O)c1O)[C@H](O[C@@H]1O[C@H](C)[C@H](N(C)C)[C@H](O[C@@H]4OC[C@@H](O)[C@H](O)[C@H]4O)[C@H]1O)[C@H]3O)C2=O [Example 8, N-methyl BU-3608] | 3100 µg/mL (≈ 3630 µM) | 3 µg/mL (≈ 3.51 µM) | ED50 (Candida albicans A9540; [3]): 3.5 mg/kg
7 | COc1cc(O)c2c(c1)C(=O)c1c(cc3c(c1O)-c1c(cc(C)c(C(=O)NCC(=O)O)c1O)[C@H](O[C@@H]1O[C@H](C)[C@H](N(C)C)[C@H](O[C@@H]4OC[C@@H](O)[C@H](O)[C@H]4O)[C@H]1O)[C@H]3O)C2=O [Example 7, N,N-dimethyl BU-3608 E] | 1800 µg/mL (≈ 2140 µM) | > 2000 µg/mL | ED50 (Candida albicans A9540; [3]): 11 mg/kg
